Laboratory results: ChEMBL document CHEMBL1147793, “Synthesis and biological investigations of dopaminergic partial agonists preferentially recognizing the D4 receptor subtype” (Bioorg Med Chem Lett, 2006)

Tests used:
D(3) dopamine receptor [1] = molecular target: T1, D(3) dopamine receptor (Homo sapiens, UniProt P35462); test: Displacement of [3H]spiperone from human cloned dopamine D3 receptor expressed in CHO cells; type: cell-based
D(4) dopamine receptor [2] = molecular target: T2, D(4) dopamine receptor (Homo sapiens, UniProt P21917); test: Displacement of [3H]spiperone from human cloned dopamine D4 receptor expressed in CHO cells; type: cell-based
T2 sequence (P21917 whole entry): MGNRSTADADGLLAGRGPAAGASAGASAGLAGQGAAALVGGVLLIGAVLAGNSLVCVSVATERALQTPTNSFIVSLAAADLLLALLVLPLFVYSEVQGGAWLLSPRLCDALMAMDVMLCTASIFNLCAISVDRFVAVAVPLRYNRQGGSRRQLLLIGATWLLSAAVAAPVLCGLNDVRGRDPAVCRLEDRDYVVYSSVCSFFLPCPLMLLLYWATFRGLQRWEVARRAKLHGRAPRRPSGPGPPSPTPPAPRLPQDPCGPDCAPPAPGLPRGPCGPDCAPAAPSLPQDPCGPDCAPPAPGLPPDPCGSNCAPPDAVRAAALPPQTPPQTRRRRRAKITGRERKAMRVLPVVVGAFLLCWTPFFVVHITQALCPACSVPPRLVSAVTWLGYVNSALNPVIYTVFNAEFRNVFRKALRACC

D(1A) dopamine receptor = D(1A) dopamine receptor (Sus scrofa, UniProt P50130); test: Displacement of [3H]SCH-23390 from dopamine D1 receptor in porcine striatal membrane; type: cell membranes, Striatum
Chain of D(1A) dopamine receptor (P50130 whole entry): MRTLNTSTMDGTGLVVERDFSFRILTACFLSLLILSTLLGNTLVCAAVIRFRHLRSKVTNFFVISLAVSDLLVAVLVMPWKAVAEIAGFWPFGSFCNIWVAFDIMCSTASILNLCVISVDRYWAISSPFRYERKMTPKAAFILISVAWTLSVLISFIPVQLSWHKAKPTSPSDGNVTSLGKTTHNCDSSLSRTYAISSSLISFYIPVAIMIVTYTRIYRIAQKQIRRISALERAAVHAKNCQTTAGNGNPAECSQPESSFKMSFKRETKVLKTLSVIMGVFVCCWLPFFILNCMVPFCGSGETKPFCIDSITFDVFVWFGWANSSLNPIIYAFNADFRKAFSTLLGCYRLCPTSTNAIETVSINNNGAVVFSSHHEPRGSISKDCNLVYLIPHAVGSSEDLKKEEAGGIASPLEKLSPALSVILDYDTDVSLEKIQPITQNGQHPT

D(2) dopamine receptor [3] = molecular target: T3, D(2) dopamine receptor (Homo sapiens, UniProt P14416); test: Displacement of [3H]spiperone from human cloned dopamine D2(long) receptor expressed in CHO cells; type: cell-based
T3 sequence (P14416 whole entry): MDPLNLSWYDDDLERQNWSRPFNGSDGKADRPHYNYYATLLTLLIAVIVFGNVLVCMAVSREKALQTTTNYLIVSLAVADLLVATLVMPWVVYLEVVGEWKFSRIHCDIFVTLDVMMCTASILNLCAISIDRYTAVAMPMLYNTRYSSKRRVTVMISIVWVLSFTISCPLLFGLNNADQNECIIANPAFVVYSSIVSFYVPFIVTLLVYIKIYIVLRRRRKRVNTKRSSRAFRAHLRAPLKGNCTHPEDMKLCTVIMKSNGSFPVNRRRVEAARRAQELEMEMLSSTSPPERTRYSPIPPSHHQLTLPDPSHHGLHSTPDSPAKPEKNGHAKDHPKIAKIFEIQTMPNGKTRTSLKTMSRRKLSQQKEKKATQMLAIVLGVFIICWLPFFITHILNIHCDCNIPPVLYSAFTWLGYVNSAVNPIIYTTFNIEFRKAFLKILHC

D(2) dopamine receptor [4] = molecular target: T3, D(2) dopamine receptor; test: Displacement of [3H]spiperone from human cloned dopamine D2(short) receptor expressed in CHO cells; type: cell-based
D(2) dopamine receptor [5] = molecular target: T3, D(2) dopamine receptor; test: Intrinsic activity against dopamine D2(short) receptor assessed as [3H]thymidine uptake in CHO cells relative to quinpirole by mitogenesis assay; type: functional, cell-based
D(2) dopamine receptor [6] = molecular target: T3, D(2) dopamine receptor; test: Intrinsic activity against dopamine D2(short) receptor assessed as [3H]thymidine uptake in CHO cells by mitogenesis assay; type: functional, cell-based
D(3) dopamine receptor [7] = molecular target: T1, D(3) dopamine receptor; test: Intrinsic activity against dopamine D3 receptor assessed as [3H]thymidine uptake in CHO cells by mitogenesis assay
D(4) dopamine receptor [8] = molecular target: T2, D(4) dopamine receptor; test: Intrinsic activity against dopamine D4 receptor assessed as [3H]thymidine uptake in CHO cells by mitogenesis assay; type: functional, cell-based
[9] = molecular target: 5-hydroxytryptamine receptor 2A (Sus scrofa, UniProt P50129); test: Displacement of […] from 5HT2 receptor in porcine striatal membrane; type: cell membranes, Striatum
Chain of 5-hydroxytryptamine receptor 2A (P50129 whole entry): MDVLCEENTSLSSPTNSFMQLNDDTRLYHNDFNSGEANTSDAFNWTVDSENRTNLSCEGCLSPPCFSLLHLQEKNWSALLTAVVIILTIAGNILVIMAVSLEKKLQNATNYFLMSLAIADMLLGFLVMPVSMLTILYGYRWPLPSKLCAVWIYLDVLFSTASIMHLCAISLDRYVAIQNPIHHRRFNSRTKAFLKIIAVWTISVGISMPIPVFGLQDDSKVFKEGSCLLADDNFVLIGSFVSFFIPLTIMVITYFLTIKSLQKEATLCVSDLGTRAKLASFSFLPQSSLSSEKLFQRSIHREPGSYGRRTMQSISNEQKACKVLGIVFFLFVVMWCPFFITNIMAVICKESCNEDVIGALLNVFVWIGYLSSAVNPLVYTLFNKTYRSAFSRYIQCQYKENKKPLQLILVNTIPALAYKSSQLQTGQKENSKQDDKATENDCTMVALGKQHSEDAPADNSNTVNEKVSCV

D(2) dopamine receptor [10] = molecular target: T3, D(2) dopamine receptor; test: Intrinsic activity against dopamine D2(long) receptor assessed as [3H]thymidine uptake in CHO cells relative to quinpirole by mitogenesis assay; type: functional, cell-based
D(2) dopamine receptor [11] = molecular target: T3, D(2) dopamine receptor; test: Intrinsic activity against dopamine D2(long) receptor assessed as [3H]thymidine uptake in CHO cells by mitogenesis assay; type: functional, cell-based
D(2) dopamine receptor [12] = molecular target: T3, D(2) dopamine receptor; test: Intrinsic activity against dopamine D2(long) receptor expressed in CHO cells relative to quinpirole by GTPgammaS assay; type: functional, cell-based
D(2) dopamine receptor [13] = molecular target: T3, D(2) dopamine receptor; test: Intrinsic activity against dopamine D2(short) receptor expressed in CHO cells relative to quinpirole by GTPgammaS assay; type: functional, cell-based
D(2) dopamine receptor [14] = molecular target: T3, D(2) dopamine receptor; test: Intrinsic activity against dopamine D2(short) receptor expressed in CHO cells by GTPgammaS assay; type: functional, cell-based
D(4) dopamine receptor [15] = molecular target: T2, D(4) dopamine receptor; test: Intrinsic activity against dopamine D4 receptor expressed in CHO cells by GTPgammaS assay; type: functional, cell-based
D(2) dopamine receptor [16] = molecular target: T3, D(2) dopamine receptor; test: Intrinsic activity against dopamine D2(long) receptor expressed in CHO cells by GTPgammaS assay; type: functional, cell-based

T1 sequence (P35462 whole entry): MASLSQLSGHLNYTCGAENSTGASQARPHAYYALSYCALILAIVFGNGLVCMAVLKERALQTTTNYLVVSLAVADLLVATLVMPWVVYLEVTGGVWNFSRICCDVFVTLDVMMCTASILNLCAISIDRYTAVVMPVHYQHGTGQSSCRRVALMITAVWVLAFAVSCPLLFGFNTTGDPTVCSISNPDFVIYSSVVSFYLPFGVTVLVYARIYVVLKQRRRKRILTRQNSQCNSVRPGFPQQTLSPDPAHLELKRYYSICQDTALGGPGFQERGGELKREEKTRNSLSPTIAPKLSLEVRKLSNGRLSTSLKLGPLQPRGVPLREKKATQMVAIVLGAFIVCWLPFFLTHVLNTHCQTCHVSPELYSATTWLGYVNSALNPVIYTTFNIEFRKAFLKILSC

## c1ccc(N2CCN(Cc3cnn(-c4ccccc4)c3)CC2)cc1
D(3) dopamine receptor [1]
  Ki: 140 nM
D(4) dopamine receptor [2]
  Ki: 1 nM
D(1A) dopamine receptor
  Ki: 1600 nM
D(2) dopamine receptor [3]
  Ki: 140 nM
D(2) dopamine receptor [4]; read-out: Ki
  Ki: 75 nM

## COc1ccccc1N1CCN(Cc2cnn(-c3ccccc3)c2)CC1
D(3) dopamine receptor [1]
  Ki: 35 nM
D(4) dopamine receptor [2]
  Ki: 0.28 nM
D(1A) dopamine receptor
  Ki: 1000 nM
D(2) dopamine receptor [5]
  Efficacy: 66%
D(2) dopamine receptor [6]
  EC50: 0.22 nM
D(3) dopamine receptor [7]
  EC50: 0.21 nM
D(4) dopamine receptor [8]
  EC50: 0.6 nM
[9]
  Ki: 1300 nM
D(2) dopamine receptor [10]
  Efficacy: 56%
D(2) dopamine receptor [11]
  EC50: 0.28 nM
D(2) dopamine receptor [3]
  Ki: 11 nM
D(2) dopamine receptor [4]; read-out: Ki
  Ki: 8 nM

## COc1ccccc1N1CCN(Cc2cnn(-c3ccccn3)c2)CC1
D(3) dopamine receptor [1]
  Ki: 72 nM
D(4) dopamine receptor [2]
  Ki: 0.44 nM
D(1A) dopamine receptor
  Ki: 1900 nM
D(2) dopamine receptor [3]
  Ki: 40 nM
D(2) dopamine receptor [4]; read-out: Ki
  Ki: 31 nM

## c1ccc(-n2cc(CN3CCN(c4ncccn4)CC3)cn2)cc1
D(3) dopamine receptor [1]
  Ki: 2900 nM
D(4) dopamine receptor [2]
  Ki: 310 nM
D(1A) dopamine receptor
  Ki: 7100 nM
D(2) dopamine receptor [3]
  Ki: 6000 nM
D(2) dopamine receptor [4]; read-out: Ki
  Ki: 14000 nM

## Clc1ccc(N2CCN(Cc3cnn(-c4ccccc4)c3)CC2)cc1
D(3) dopamine receptor [1]
  Ki: 1900 nM
D(4) dopamine receptor [2]
  Ki: 2.9 nM
D(1A) dopamine receptor
  Ki: 7500 nM
D(2) dopamine receptor [3]
  Ki: 2900 nM
D(2) dopamine receptor [4]
  Ki: 1900 nM

## c1ccc(N2CCN(Cc3cn(-c4ccccc4)nn3)CC2)cc1
D(3) dopamine receptor [1]
  Ki: 1200 nM
D(4) dopamine receptor [2]
  Ki: 9.9 nM
D(1A) dopamine receptor
  Ki: 21000 nM
D(2) dopamine receptor [3]
  Ki: 1500 nM
D(2) dopamine receptor [4]; read-out: Ki
  Ki: 860 nM

## c1ccc(N2CCN(Cc3cnn(-c4ccccn4)c3)CC2)cc1
D(3) dopamine receptor [1]
  Ki: 160 nM
D(4) dopamine receptor [2]
  Ki: 2.6 nM
D(1A) dopamine receptor
  Ki: 1600 nM
D(2) dopamine receptor [3]
  Ki: 340 nM
D(2) dopamine receptor [4]; read-out: Ki
  Ki: 190 nM

## Cc1c(CN2CCN(c3ccccc3)CC2)cnn1-c1ccccc1
D(3) dopamine receptor [1]
  Ki: 320 nM
D(4) dopamine receptor [2]
  Ki: 5.3 nM
D(1A) dopamine receptor
  Ki: 560 nM
D(2) dopamine receptor [3]
  Ki: 630 nM
D(2) dopamine receptor [4]; read-out: Ki
  Ki: 250 nM

## COc1ccccc1N1CCN(Cc2cn(-c3ccccc3)nn2)CC1
D(3) dopamine receptor [1]
  Ki: 340 nM
D(4) dopamine receptor [2]
  Ki: 2.7 nM
D(1A) dopamine receptor
  Ki: 27000 nM
D(2) dopamine receptor [3]
  Ki: 120 nM
D(2) dopamine receptor [4]; read-out: Ki
  Ki: 65 nM

## Fc1ccccc1N1CCN(Cc2cnn(-c3ccccc3)c2)CC1
D(3) dopamine receptor [1]
  Ki: 67 nM
D(4) dopamine receptor [2]
  Ki: 0.7 nM
D(1A) dopamine receptor
  Ki: 680 nM
D(2) dopamine receptor [3]
  Ki: 63 nM
D(2) dopamine receptor [4]; read-out: Ki
  Ki: 37 nM

## C1=C(c2ccccc2)CCN(Cc2cn(-c3ccccc3)nn2)C1
D(3) dopamine receptor [1]
  Ki: 94 nM
D(4) dopamine receptor [2]
  Ki: 3.2 nM
D(1A) dopamine receptor
  Ki: 10000 nM
D(2) dopamine receptor [3]
  Ki: 220 nM
D(2) dopamine receptor [4]; read-out: Ki
  Ki: 110 nM

## c1ccc(-c2c[nH]c(CN3CCN(c4ccccc4)CC3)c2)cc1
D(3) dopamine receptor [1]
  Ki: 514 nM
D(1A) dopamine receptor
  Ki: 2100 nM

## Fc1ccc(N2CCN(Cc3cnn(-c4ccccc4)c3)CC2)cc1
D(3) dopamine receptor [1]
  Ki: 540 nM
D(4) dopamine receptor [2]
  Ki: 2.9 nM
D(1A) dopamine receptor
  Ki: 1900 nM
D(2) dopamine receptor [3]
  Ki: 450 nM
D(2) dopamine receptor [4]; read-out: Ki
  Ki: 400 nM

## C1=C(c2ccccc2)CCN(Cc2cnn(-c3ccccc3)c2)C1
D(3) dopamine receptor [1]
  Ki: 33 nM
D(4) dopamine receptor [2]
  Ki: 0.59 nM
D(1A) dopamine receptor
  Ki: 3000 nM
D(2) dopamine receptor [12]
  Efficacy: 45%
D(2) dopamine receptor [5]
  Efficacy: 30%
D(2) dopamine receptor [6]
  EC50: 1.7 nM
D(2) dopamine receptor [13]
  Efficacy: 17%
D(2) dopamine receptor [14]
  EC50: 32 nM
D(3) dopamine receptor [7]
  EC50: 3.3 nM
D(4) dopamine receptor [8]
  EC50: 5.6 nM
D(4) dopamine receptor [15]
  EC50: 9.5 nM
[9]
  Ki: 2100 nM
D(2) dopamine receptor [10]
  Efficacy: 54%
D(2) dopamine receptor [11]
  EC50: 3 nM
D(2) dopamine receptor [3]
  Ki: 38 nM
D(2) dopamine receptor [4]; read-out: Ki
  Ki: 28 nM
D(2) dopamine receptor [16]
  EC50: 25 nM

## c1ccc(N2CCN(Cc3ccc(-n4cccn4)cc3)CC2)cc1
D(3) dopamine receptor [1]
  Ki: 2100 nM
D(4) dopamine receptor [2]
  Ki: 20 nM
D(1A) dopamine receptor
  Ki: 7600 nM
D(2) dopamine receptor [3]
  Ki: 3000 nM
D(2) dopamine receptor [4]; read-out: Ki
  Ki: 2400 nM

## Cc1nn(-c2ccccc2)cc1CN1CCN(c2ccccc2)CC1
D(3) dopamine receptor [1]
  Ki: 360 nM
D(4) dopamine receptor [2]
  Ki: 1 nM
D(1A) dopamine receptor
  Ki: 3900 nM
D(2) dopamine receptor [3]
  Ki: 71 nM
D(2) dopamine receptor [4]; read-out: Ki
  Ki: 43 nM
